For test [1], the target named is T1, LRBA and CTLA-4 reporting system (Homo sapiens, UniProt P16410+P50851).
T1 construct: expressed in transfected cells; host or cells: HEK293
Description: LRBA/CTLA-4 protein-protein interaction reporting system, dual luciferase assay in HEK293 cells. The class given is cell-based. To be noted: HEK293 cells co-transfected with LRBA and CTLA-4 reporting system, 24 h after dosing; read-out: In vitro activity (IC50: concentration of compounds that inhibit 50% of reporting system activity). Here is the method:
HEK293 cells were spread on 96-well plates, and LRBA and CTLA-4 reporting system were co-transfected into HEK293 cells after 24 h. After 24 h, different compounds with final concentrations of 0.01, 0.033, 0.10, 0.33, 1.00, 3.33, 10.00, 33.33, and 100.00 μM were added. 24 h after dosing, the cell culture medium was removed and the cells were washed with cold PBS. Then the activity of the compounds were detected by the dual luciferase assay kit, and IC50 values were calculated according to the results.
For the compounds with strong activity (IC50<200 nM), the degradation of CTLA-4 protein was further detected by Western Blot. • IC50: Concentration of compounds that inhibit 50% of reporting system activity The size of IC50 is divided into four levels: • ++++, IC50<200 nM; +++, IC50 is 200-1000 nM; ++, IC50 is 1000-2000 nM; +, IC50>2000 nM.

Test [2] deals with Mouse colon cancer MC-38 cells. Description: In vivo activity research of xenograft model (MC-38). Set-up: species or system C57BL/6 mice. To be noted: for TGI(%): 30 mg/kg, oral, once a day, MC-38 subcutaneous in C57BL/6 mice. Here is the method:
1. Cell culture: Mouse colon cancer MC-38 cells were adherently cultured in vitro. The culture conditions were RPMI-1640 medium with 10% fetal bovine serum, 100 U/mL penicillin and 100 μg/mL streptomycin, 37° C. 5% CO2 incubator culture. Passaged with routine processing two to three times a week. When the cell saturation was 80%-90% and the number reached the requirement, the cell count was collected, and the cell concentration was adjusted for experimental inoculation. 2. Animals: C57BL/6 mice, female, 7 weeks old, 18-20 grams in weight, 8 mice per group. 3. Tumor inoculation: 0.02 mL (0.2×10^6) MC-38 cells were subcutaneously inoculated into the right back of each mouse. On the 7th day after inoculation, the tumor volumes of the animals were measured, and then the groups were randomized according to tumor volume and administration was started. 4. Experimental indicators: The experimental indicators were used to examine whether the tumor growth is inhibited, delayed or cured. Tumor diameters were measured with vernier calipers two to three times a week. The calculation formula of tumor volume is: V=0.5a×b^2, wherein a and b respectively represent the long and short diameters of tumors. The anti-tumor effect of the compounds was expressed by TGI (%). TGI (%), reflecting tumor growth inhibition rate. Calculation of TGI(%): TGI(%)=[(1-(average tumor volume at the end of administration of a treatment group−average tumor volume at the beginning of administration of the treatment group))/(average tumor volume at the end of treatment of the solvent control group−average tumor volume at the beginning of treatment of the solvent control group)]×100%. 5. Animal experiment grouping, administration program and experimental results: […]

The test system of test [3] is Non-small cell lung cancer. To be noted: clinical; cited from earlier work.
For test [4], the system named is Colorectal cancer (MSI-H/dMMR). To be noted: clinical; cited from earlier work.
In another test the test system is Hepatocellular carcinoma. To be noted: clinical; cited from earlier work.

T1 sequence (P16410 36-223): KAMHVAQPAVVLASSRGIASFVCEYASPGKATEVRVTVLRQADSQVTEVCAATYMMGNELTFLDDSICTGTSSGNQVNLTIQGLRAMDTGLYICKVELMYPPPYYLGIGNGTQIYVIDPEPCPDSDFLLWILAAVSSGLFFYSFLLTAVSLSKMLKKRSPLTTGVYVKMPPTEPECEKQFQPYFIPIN
T1 sequence (P50851 whole entry): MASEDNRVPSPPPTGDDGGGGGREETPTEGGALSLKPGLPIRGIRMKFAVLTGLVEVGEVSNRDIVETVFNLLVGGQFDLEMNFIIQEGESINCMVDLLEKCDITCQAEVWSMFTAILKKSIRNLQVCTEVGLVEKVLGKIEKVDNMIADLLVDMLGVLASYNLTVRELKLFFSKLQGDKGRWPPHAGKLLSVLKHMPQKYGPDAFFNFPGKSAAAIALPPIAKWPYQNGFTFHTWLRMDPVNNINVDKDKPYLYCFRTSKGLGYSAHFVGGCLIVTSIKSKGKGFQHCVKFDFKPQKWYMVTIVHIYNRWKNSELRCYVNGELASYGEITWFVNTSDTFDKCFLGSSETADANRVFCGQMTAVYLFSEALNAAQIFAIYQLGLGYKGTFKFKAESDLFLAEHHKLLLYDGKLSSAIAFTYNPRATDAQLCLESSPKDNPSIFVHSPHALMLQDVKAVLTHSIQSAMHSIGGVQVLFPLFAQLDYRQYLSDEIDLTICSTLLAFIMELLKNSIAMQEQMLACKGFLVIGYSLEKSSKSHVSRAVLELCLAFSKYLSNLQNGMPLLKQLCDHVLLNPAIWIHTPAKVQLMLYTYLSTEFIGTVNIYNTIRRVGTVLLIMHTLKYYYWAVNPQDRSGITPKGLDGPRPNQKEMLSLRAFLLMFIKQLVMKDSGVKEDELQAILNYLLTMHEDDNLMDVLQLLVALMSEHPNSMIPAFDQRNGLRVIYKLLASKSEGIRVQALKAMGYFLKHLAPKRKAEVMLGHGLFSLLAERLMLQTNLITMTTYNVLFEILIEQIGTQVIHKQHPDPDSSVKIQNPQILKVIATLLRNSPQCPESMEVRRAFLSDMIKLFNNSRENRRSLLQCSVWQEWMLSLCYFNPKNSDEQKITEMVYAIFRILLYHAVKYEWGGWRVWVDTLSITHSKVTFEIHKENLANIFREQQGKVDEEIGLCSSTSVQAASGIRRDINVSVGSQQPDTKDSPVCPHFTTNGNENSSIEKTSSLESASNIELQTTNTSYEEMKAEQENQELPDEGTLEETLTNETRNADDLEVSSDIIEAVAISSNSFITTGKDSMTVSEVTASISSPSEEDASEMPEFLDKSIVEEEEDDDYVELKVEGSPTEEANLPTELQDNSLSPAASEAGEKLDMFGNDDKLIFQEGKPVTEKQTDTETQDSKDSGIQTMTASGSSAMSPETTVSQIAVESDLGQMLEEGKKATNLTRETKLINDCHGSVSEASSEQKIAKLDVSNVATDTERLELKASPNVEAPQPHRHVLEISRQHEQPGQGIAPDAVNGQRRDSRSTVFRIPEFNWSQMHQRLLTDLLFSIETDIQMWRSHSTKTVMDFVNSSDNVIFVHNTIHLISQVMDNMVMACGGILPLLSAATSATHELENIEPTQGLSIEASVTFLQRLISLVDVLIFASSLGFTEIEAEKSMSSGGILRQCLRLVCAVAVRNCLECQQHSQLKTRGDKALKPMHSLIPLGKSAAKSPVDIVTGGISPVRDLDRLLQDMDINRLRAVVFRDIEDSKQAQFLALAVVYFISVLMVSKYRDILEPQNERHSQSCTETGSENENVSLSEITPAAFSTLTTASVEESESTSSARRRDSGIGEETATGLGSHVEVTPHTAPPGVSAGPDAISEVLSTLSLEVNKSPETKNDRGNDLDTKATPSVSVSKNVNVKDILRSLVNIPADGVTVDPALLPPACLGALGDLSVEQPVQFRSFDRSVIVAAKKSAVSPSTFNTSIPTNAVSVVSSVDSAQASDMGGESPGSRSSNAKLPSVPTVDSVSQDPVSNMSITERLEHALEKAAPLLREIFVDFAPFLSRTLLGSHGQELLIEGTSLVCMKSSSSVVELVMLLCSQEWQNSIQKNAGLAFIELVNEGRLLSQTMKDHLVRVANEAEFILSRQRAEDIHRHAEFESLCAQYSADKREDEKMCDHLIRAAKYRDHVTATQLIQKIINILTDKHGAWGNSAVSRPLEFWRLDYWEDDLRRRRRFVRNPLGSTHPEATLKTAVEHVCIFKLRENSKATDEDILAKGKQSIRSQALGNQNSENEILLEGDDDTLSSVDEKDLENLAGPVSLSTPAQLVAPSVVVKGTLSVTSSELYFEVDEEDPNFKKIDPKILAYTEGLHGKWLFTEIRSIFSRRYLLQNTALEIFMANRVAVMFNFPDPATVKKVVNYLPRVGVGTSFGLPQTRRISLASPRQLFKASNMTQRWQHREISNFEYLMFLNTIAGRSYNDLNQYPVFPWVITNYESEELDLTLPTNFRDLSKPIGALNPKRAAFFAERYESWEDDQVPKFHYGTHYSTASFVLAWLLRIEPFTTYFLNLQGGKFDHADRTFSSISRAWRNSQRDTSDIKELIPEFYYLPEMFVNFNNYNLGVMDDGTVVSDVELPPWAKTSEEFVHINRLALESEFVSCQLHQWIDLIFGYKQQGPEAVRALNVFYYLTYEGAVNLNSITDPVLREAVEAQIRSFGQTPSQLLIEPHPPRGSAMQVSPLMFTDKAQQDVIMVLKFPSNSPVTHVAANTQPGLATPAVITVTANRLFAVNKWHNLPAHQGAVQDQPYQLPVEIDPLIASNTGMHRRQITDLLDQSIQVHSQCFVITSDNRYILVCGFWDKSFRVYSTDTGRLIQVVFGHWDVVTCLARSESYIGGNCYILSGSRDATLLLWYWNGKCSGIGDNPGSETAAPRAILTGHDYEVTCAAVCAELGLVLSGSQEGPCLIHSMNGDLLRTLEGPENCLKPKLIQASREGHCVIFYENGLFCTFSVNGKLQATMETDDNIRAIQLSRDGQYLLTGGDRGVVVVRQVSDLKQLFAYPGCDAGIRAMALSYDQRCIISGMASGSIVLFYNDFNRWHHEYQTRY

On to `c1ccc2ncc(-c3cc(N4CCNCC4)ncn3)cc2c1` [Compound 44, 3-(6-(piperazin-1-yl)pyrimidin-4-yl)quinoline], for which the IC50 in test [1] was under 200 nM. Further, the “TGI(%)” value in test [2] is recorded as 85%.

As for `c1ccc2ncc(-c3ccnc(N4CCNCC4)n3)cc2c1` [Compound 18, 3-(2-(piperazin-1-yl)pyrimidin-4-yl)quinoline], in test [1], the IC50 is under 200 nM. In test [2], the “TGI(%)” value amounted to 90%. Also, the “anti-tumor effect in tumor transplantation model in vivo” value in test [2] (MC-38 model) is “excellent anti-tumor effects”.

In the case of Nivolumab [O drug], the ORR result was “single O drug group ORR = 14.5%” in test [3], “single O drug group ORR = 36%” in test [4] and “single O drug group ORR = 15%” in the test on Hepatocellular carcinoma.

For `N#Cc1cc(-c2cnc3ccccc3c2)nc(N2CCNCC2)n1` [Compound 42, 3-(6-cyano-2-(piperazin-1-yl)pyrimidin-4-yl)quinoline], the IC50 in test [1] was under 200 nM.

With `O=CNCC1CCN(c2nccc(-c3cnc4ccccc4c3)n2)CC1` [Compound 2, N-((1-(4-(quinolin-3-yl)pyrimidin-2-yl)piperidin-4-yl)methyl)formamide], the IC50 in test [1] was over 2000 nM.

On to `c1ccc2ncc(-c3ncnc(N4CCNCC4)n3)cc2c1` [Compound 35, 3-(4-(piperazin-1-yl)-1,3,5-triazin-2-yl)quinoline], for which the IC50 in test [1] is under 200 nM.

For the compound `c1ccc2ncc(-c3cc4nccn4c(N4CCNCC4)n3)cc2c1` [Compound 41, 3-(5-(piperazin-1-yl)imidazo[1,2-c]pyrimidin-7-yl)quinoline], the IC50 in test [1] lay within 200 to 1000 nM.

Take `NCC1CCN(c2nccc(-c3cc(=O)c4ccccc4o3)n2)CC1` [Compound 13, 2-(2-(4-(aminomethyl)piperidin-1-yl)pyrimidin-4-yl)-4hydro-benzopyran-4-one]: in test [1], the IC50 is over 2000 nM.

Source of the values: patent publication US20240199654A1, “CTLA-4 SMALL MOLECULE DEGRADATION AGENT AND APPLICATION THEREOF” (SUZHOU GUOKUANG PHARMTECH. CO., LTD., priority 2021, published 2024).
